Measured values taken from patent US20230381185A1, “NOVEL FORMULATIONS FOR ORAL ADMINISTRATION OF THERAPEUTIC AGENTS TO THE GASTROINTESTINAL TRACT” (3-D Matrix, Ltd., priority 2022, published 2023).
Entries after “also recorded” stand apart in the source; their conditions may differ. Read-outs that look alike come from different tables or passages of the source.

Legend:
DSS-induced colitis mice = assay: Efficacy in DSS-induced colitis (DAI, colon weight/length, MPO, histology, immune cells); assay type: in vivo
Excerpt: An additional benefit of this nanocomposite system is that it can be dried and then reconstituted in vivo or under in vivo-like conditions without substantial alteration of its properties. The dried nanocomposite offers the advantage of a long-duration storage, but, perhaps more importantly, the dried nanocomposite powder can be encapsulated in various types of capsules known in the art for a controlled and localized delivery in precise part of the GIT with systems differentiated in the basis of GIT transit times, pH changes, bacterial enzymes, mucoadhesion, nanotechnologies and disease-associated triggers. One such capsule, designed for release of hydrated RADA16 hydrogel doped with a macromolecular dye, fluorescein isothiocyanate—dextran 4 kDa (FD4), mostly in the large intestine, has been described by Eleftheriadis et al. (Pharm. Development Tech. 25(4): 1-23 (2020)). That reference discloses a pH sensitive hydroxypropyl methylcellulose-phthalate (HPMCP)-based 3D-printed capsule. Other encapsulation materials suited to the present invention include poly(meth) acrylate polymers and members of the Eudragit family (Chu, J. N. and Traverso, G., Foundations of gastrointestinal-based drug delivery and future developments, Nature Reviews: Gastroenterology & Hepatology (2021) doi: 10.1038/s41575-021-00539-w). The present invention is based, at least, on the following findings/parameters: • 1. A nanocomposite based on the physical mixture of a preformed nanosystem (namely nanoemulsion, NE) loaded with a drug intended for the treatment of IBD, and a preformed self-assembling-peptide ([…])-based hydrogel (PURASTAT) was created at different concentrations of SAP. • 2. The creation of nanocomposites characterized by two different concentrations, led to the development of systems with different structural properties, leading to differences in the drug-release behaviours. • 3. […] The use of nanocomposite to test the therapeutic efficacy of the drug on an IBD-mouse model brought results based on different technique, detailed herein. • 5. Certain disease factors were improved by administration of PS hydrogel/NE mixture alone, even in the absence of any active ingredients. Disease activity index (DAI) score, used to evaluate the DSS-induced colitis. […] For each parameter a score from 0 to 4 was attributed and afterwards divided by three, resulting in the total DAI score ranging from 0 (unaffected) to 4 (severe colitis) (Gonçalves, F. da C., Schneider, N., H. M.-A. S. & 2013, U. Characterization of Acute Murine Dextran Sodium Sulfate (DSS) Colitis: Severity of Inflammation is Dependent on the DSS Molecular Weight and Concentration. Acta Sci. Vet. 41, 1-9 (2013)). Colon length and weight, which is often reduced in cases of inflammation (Biton, I. E. et al. Assessing Mucosal Inflammation in a DSS-Induced Colitis Mouse Model by MR Colonography. Tomogr. (Ann Arbor, Mich.) 4, 4-13 (2018)). The activity of the enzyme myeloperoxidase (MPO), which is a direct indicator of neutrophils infiltration into the colonic mucosa, and thus an important marker of inflammation (Hansberry, D. R., Shah, K., Agarwal, P. & Agarwal, N. Fecal Myeloperoxidase as a Biomarker for Inflammatory Bowel Disease. Cureus 9, (2017)). Histomorphologic evaluation by HPS stain (hematoxylin phloxine saffron stain), similar to H&E. HPS can differentiate between the most common connective tissue (collagen) and muscle and cytoplasm by staining the former yellow and the latter two pink, unlike an H&E stain, which stains all three pink. Immunohistochemistry for the detection of CD45 positive cells.
Efficacy of drug-loaded nanocomposites compared to a variety of controls was tested using mice of the same strain used in Example 5. Based on the results from the Stage 1 in vivo studies already described, all mice (except for the G1 healthy control group) were given 3% v/v DSS in drinking water for 4 days. After 4 days all mice were given normal drinking water (i.e., no DSS). […]

[1] = cited from earlier work
[2] = tested on: liver punch hole injuries in pigs; conditions: cited from earlier work; for inflammatory cell infiltration due to the SAP: short-term study
[3] = tested on: oozing wounds in the walls of the stomach and/or duodenum of pigs; conditions: endoscopic administration, no control group; cited from earlier work

Molecule: C[C@@H]1CCN(C(=O)CC#N)C[C@@H]1N(C)c1ncnc2[nH]ccc12 [TFC, Tofacitinib]
- Myeloperoxidase (MPO) activity in colonic tissue (DSS-induced colitis mice; indicator of neutrophil infiltration): slight improvement
- Th2 or Treg populations (DSS-induced colitis mice; mouse, in vivo): did not affect
- infiltration of lymphocytes / CD45+ cells (DSS-induced colitis mice; mouse, in vivo): reduced infiltration of lymphocytes
- proportion of Th1 and Th17 proinflammatory populations (DSS-induced colitis mice; mouse, in vivo): significantly reduced
- total amount of T cells (CD3+) (DSS-induced colitis mice; mouse, in vivo): strongly reduced
- colon weight/colon length ratio (g/cm) (DSS-induced colitis mice; sacrifice at day 10, relative to G2 untreated IBD mice): statistically significant improvement; also recorded: significantly prevented
- epithelium and muscularis structure / architecture (histology) (DSS-induced colitis mice; with respect to G2): considerable amelioration

Molecule: Ac-RADARADARADARADA-CONH2 [RADA16]
- storage modulus G′ ([1]; 2.5% in water): about 350 Pa
- inflammatory cell infiltration due to the SAP [2]: absence

Molecule: IEIKIEIKIEIKI [IEIK13]
- hemostasis [3]: hemostasis was achieved in both heparinized and non-heparinized animals
- storage modulus G′ ([1]; 1% in water): ~700 Pa
- hemostasis ([2]; compared to RADA16): statistically significant improvement
- inflammatory cell infiltration due to the SAP [2]: absence

Molecule: KLDLKLDLKLDL [KLD12]
- storage modulus G′ ([1]; 1.5% in water): about 350 Pa
